# Patent US20230082989A1, “DEVICES AND METHODS FOR TREATING CANCER AND CARDIAC WASTING” (Nazzano Devices Limited, priority 2020, published 2023)
# Experiments:
# Format in all cases: in vivo, human
# [1] = tested on: patients with advanced cancer; experiment: Prospective study of ivabradine in advanced cancer patients: heart rate; conditions: 4 cancer patients, no known heart failure, LVEF>50%, heart rate >70 bpm; Ivabradine starting dose 5 mg twice a day; reduced from 104.5±10.4 bpm
# Source text: In this study an effect of a use of a heart drug in advanced cancer was studied. In some cases, a heart drug can comprise ivabradine. In some cases, ivabradine can be a selective antagonist of myocardial If (funny) channels. […] In some cases, ivabradine can provide pure heart rate reduction, reducing a diastolic depolarization slope, without altering other cardiac and hemodynamic parameters. In some cases, ivabradine can be effective for a treatment of an ischemic heart disease. In some cases, ivabradine can reduce episodes of both symptomatic angina pectoris and myocardial ischemia, and in heart failure where it can reduce mortality and morbidity. In some cases, it may only be approved or recommended for treatment of these two conditions. In some cases, ivabradine may have never been recommended for a treatment of a cancer patient. Disclosed herein in some embodiments, are methods in which ivabradine can be administered for a treatment of a cancer patient.
# In this study 4 cancer patients with no known heart failure and with normal left ventricular function (LEF>50%) were studied. […]
# [2] = tested on: patients with advanced cancer; experiment: Quality of life by Kansas City Cardiomyopathy Questionnaire (KCCQ), ivabradine study
# Source text: N=4, LVEF>50%. A 5 unit increase was considered a clinically meaningful change. […] The KCCQ score range is 0-100, with higher scores indicating better QoL, and improvements of ≥5 indicated clinically important changes.
# (§1) In this study 4 cancer patients with no known heart failure and with normal left ventricular function (LEF>50%) were studied. They all had histologically confirmed diagnoses of cancer (see table 1), and all suffered poor quality of life, with three showing a Karnofksy performance score of 70-80% (indicating an inability to carry on normal activity or to do active work) and one showing a Karnofksy performance score of 50-60% (indicating a need for considerable assistance and frequent medical care). […] All were given Ivabradine at a starting dose of 5 mg twice a day. Heart rate was reduced in all patients from 104.5±10.4 bpm to 77.0±10.9 bpm. […] The questionnaires are the Minnesota Living with Heart Failure Questionnaire (MLHFQ) (see FIG. 15) and the Kansas City Cardiomyopathy Questionnaire (KCCQ) (see FIG. 14). In the […] indicate a better quality of life and in the MLWHFQ lower scores indicate a better quality of life. The two figures show the clinically important improvement in symptoms and quality of life achieved in these patient by the use of the heart failure drug Ivabradine.
# [3] = tested on: patients with advanced cancer; experiment: Quality of life by Minnesota Living with Heart Failure Questionnaire (MLHFQ), ivabradine study; conditions: N=4, LVEF>50%; total score range 0-105, lower = better QoL, <24 good QoL
# Source text: N=4, LVEF>50%. […] MLHFQ has a total score range of 0-105. A lower score indicated a better QoL, with a score of <24 indicating good QoL, scores from 24 to […] indicating moderately impaired QoL, scores >45 indicating low QoL.
# as §1
smiles,measurement,setting,value
COc1cc2c(cc1OC)CC(=O)N(CCCN(C)C[C@H]1Cc3cc(OC)c(OC)cc31)CC2 [Ivabradine],Heart rate on ivabradine,[1],77.0±10.9 bpm
same,"Symptoms (breathlessness, fatigue) by MLHFQ and KCCQ symptom scores","[2]; 4 cancer patients, addition of ivabradine 5 mg twice a day starting dose",importantly improved symptoms
same,KCCQ score improvement from baseline to follow up,"[2]; N=4, LVEF>50%, score range 0-100, higher = better QoL, improvement ≥5 clinically important",≥ 5
same,"MLHFQ score, baseline to follow-up",[3],"improvements from baseline to follow-up, with good QoL at follow-up"
